Marks after values point to notes of the source that are not given here.
Tests used:
Botrytis cinerea = assay: Test E: tomato botrytis, preventive spray on tomato seedlings; conditions: 40 ppm (marked *); 100 = 100% disease control, 0 = no control
Septoria nodorum = assay: Test H: wheat glum blotch, preventive spray on wheat seedlings; conditions: 40 ppm (marked *); 100 = 100% disease control, 0 = no control
Protocol: (the causal agent of wheat glum blotch) and incubated in a saturated atmosphere at 20° C. for 48 h, and then moved to a growth chamber at 22° C. for 5 days, after which disease ratings were made.

Plasmopara viticola = assay: Test D: grape downy mildew, spray after inoculation of grape seedlings; format: in vivo; conditions: 100 = 100% disease control
Text: Upon removal, disease ratings were made. […] A dash (-) indicates no test results.

[1] = system: Erysiphe graminis f. sp. tritici; assay: Test L: wheat powdery mildew, preventive spray on wheat seedlings; conditions: 40 ppm (marked *); 100 = 100% disease control, 0 = no control
Phytophthora infestans = assay: whole plant or invertebrate; format: in vivo; conditions: 100 = 100% disease control
Septoria tritici = assay: Test J: wheat leaf blotch, preventive spray on wheat seedlings; format: in vivo; conditions: 40 ppm (marked *); 100 = 100% disease control, 0 = no control
Text: A dash (-) indicates no test results.

[2] = system: Puccinia recondita f. sp. tritici; assay: Test K: wheat leaf rust, preventive spray on wheat seedlings; conditions: 40 ppm (marked *); 100 = 100% disease control, 0 = no control
fusarium graminearium = assay: Test I: wheat head scab, preventive spray on wheat seedlings; conditions: 100 = 100% disease control
Protocol: (the causal agent of wheat head scab) and incubated in a saturated atmosphere at 20° C. for 72 h, and then moved to a growth chamber at 22° C. for 5 days, after which disease ratings were made.

[3] = system: Colletotrichum orbiculare; assay: Test B: cucumber Colletotrichum anthracnose, preventive spray on cucumber seedlings; conditions: 40 ppm (marked *); 100 = 100% disease control, 0 = no control
Pythium aphanidermatum = assay: Test A: bluegrass pythium blight, preventive spray on bluegrass seedlings; conditions: 100 = 100% disease control, 0 = no control
Rhizoctonia oryzae = assay: Test G: turf brown patch, preventive spray on creeping bent grass seedlings; conditions: 100 = 100% disease control
Protocol: (the causal agent of turf brown patch) and incubated in a saturated atmosphere at 27° C. for 24 h, and then moved to a growth chamber at 27° C. for 5 days, after which disease ratings were made.

[4] = 40 ppm (marked *), 0 = no control
[5] = 200 ppm, 0 = no control relative to controls

SMILES | Test E disease control rating (Botrytis cinerea) | Test H disease control rating (Septoria nodorum) | Test D disease control rating (Plasmopara viticola; 200 ppm, 0 = no control) [%] | Test L disease control rating [1] | Test F disease control rating (Phytophthora infestans; 200 ppm, 0 = no control) [%] | Test J disease control rating (Septoria tritici) | Test K disease control rating [2] | Test I disease control rating (fusarium graminearium; 200 ppm, 0 = no control) [%] | Test B disease control rating [3] | Test A disease control rating (Pythium aphanidermatum; 200 ppm) [%] | Test G disease control rating (Rhizoctonia oryzae; [4]) | Test D disease control rating (Plasmopara viticola; [4]) | Test F disease control rating (Phytophthora infestans; [4]) | Test I disease control rating (fusarium graminearium; [4]) | Test A disease control rating (Pythium aphanidermatum; 40 ppm (marked *)) | Test D disease control rating (Plasmopara viticola; [5]) [%] | Test F disease control rating (Phytophthora infestans; [5]) [%] | Test I disease control rating (fusarium graminearium; [5]) [%] | Test G disease control rating (Rhizoctonia oryzae; [5]) [%]
O=c1c(-n2cccn2)nc(Cl)c(-c2c(F)cc(F)cc2F)n1-c1ccc(Br)cc1 [compound 352] | 99* % | 97* % | 0 | 81* % | 0 | 100* % | 99* % | 63 | 99* % | 0 | 31* % |  |  |  |  |  |  |  | 
O=c1c(-n2cccn2)nc(Cl)c(-c2c(F)cc(F)cc2F)n1-c1cccc(C(F)(F)F)c1 [compound 353] | 98* % | 98* % | 0 | 79* % | 0 | 100* % | 91* % | 0 | 16* % | 0 | 0* % |  |  |  |  |  |  |  | 
O=c1c(-n2cccn2)nc(Cl)c(-c2c(F)cc(F)cc2F)n1-c1ccc(C(F)(F)F)cc1 [compound 354] | 95* % | 91* % | 0 | 48* % | 0 | 100* % | 97* % | 0 | 9* % | 0 | 47* % |  |  |  |  |  |  |  | 
Cc1nc(-c2ccccn2)c(=O)n(-c2ccccc2)c1-c1c(F)cccc1F [compound 359] | 0* % | 0* % |  | 0* % |  | 85* % | 0* % |  | 0* % |  | 0* % | 8* % | 0* % | 65* % | 81* % |  |  |  | 
O=c1c(-n2cccn2)nc(Cl)c(-c2c(F)cccc2F)n1-c1ccccc1Br [compound 360] | 99* % | 100* % | 0 | 99* % | 0 | 100* % | 100* % | 86 | 0* % | 0 | 65* % |  |  |  |  |  |  |  | 
O=c1c(-n2cccn2)nc(Cl)c(-c2c(F)cccc2F)n1C1CC1 [compound 361] | 92* % | 98* % | 0 | 0* % | 0 | 3* % | 83* % | 0 | 0* % | 0 | 31* % |  |  |  |  |  |  |  | 
O=c1c(-n2cccn2)nc(Cl)c(-c2c(F)cccc2F)n1C1CC1c1ccccc1 (stereo not shown) [compound 362] | 0* % | 0* % | 0 | 0* % | 0 | 0* % | 0* % | 0 | 0* % | 0 | 0* % |  |  |  |  |  |  |  | 
O=c1c(-n2cccn2)nc(Cl)c(-c2c(F)cccc2F)n1C1CCC1 [compound 363] | 99* % | 100* % | 0 | 99* % | 0 | 59* % | 100* % | 0 | 0* % | 0 | 93* % |  |  |  |  |  |  |  | 
CC(C)Cn1c(-c2c(F)cccc2F)c(Cl)nc(-c2cnccn2)c1=O.Cl [compound 364] | 99* % | 0* % | 0 | 88* % | 0 | 0* % | 92* % | 82 | 0* % | 0 | 16* % |  |  |  |  |  |  |  | 
O=c1c(-n2cccn2)nc(Cl)c(-c2c(F)cc(F)cc2F)n1-c1cccc(Cl)c1 [compound 373] | 100* % | 99* % |  | 100* % |  | 96* % | 100* % |  | 99* % |  | 93* % | 0* % | 0* % | 78* % | 0* % |  |  |  | 
Cc1ccn(-c2nc(Cl)c(-c3c(F)cc(F)cc3F)n(-c3cccc(Cl)c3)c2=O)n1 [compound 374] | 99* % | 100* % |  | 100* % |  | 100* % | 100* % |  | 100* % |  | 78* % | 0* % | 0* % | 0* % | 0* % |  |  |  | 
O=c1c(-n2cccn2)nc(Cl)c(-c2c(F)cc(F)cc2F)n1-c1ccccc1Cl [compound 375] | 99* % | 100* % |  | 100* % |  | 100* % | 100* % |  | 100* % |  | 95* % | 0* % | 0* % | 80* % | 0* % |  |  |  | 
Cc1ccn(-c2nc(Cl)c(-c3c(F)cc(F)cc3F)n(-c3ccccc3Cl)c2=O)n1 [compound 376] | 99* % | 100* % |  | 100* % |  | 100* % | 100* % |  | 100* % |  | 98* % |  | 0* % | 0* % | 0* % | 40 |  |  | 
O=c1c(-n2cccn2)nc(Cl)c(-c2c(F)cc(F)cc2F)n1Cc1ccc(Br)cc1 [compound 377] | 99* % | 0* % |  | 94* % |  | 100* % | 98* % |  | 31* % |  | 0* % | 0* % |  |  | 0* % |  | 0 | 0 | 
Cc1cccc(-n2c(-c3c(F)cccc3F)c(Cl)nc(-n3cccn3)c2=O)c1C [compound 378] | 98* % | 98* % |  | 91* % |  | 100* % | 98* % |  | 0* % |  | 51* % | 0* % | 0* % | 0* % | 0* % |  |  |  | 
Cc1ccn(-c2nc(Cl)c(-c3c(F)cccc3F)n(-c3cccc(C)c3C)c2=O)n1 [compound 379] | 98* % | 90* % |  | 40* % |  | 100* % | 95* % |  | 0* % |  | 0* % | 0* % | 0* % | 0* % | 0* % |  |  |  | 
O=c1c(-n2cccn2)nc(Cl)c(-c2c(F)cccc2F)n1-c1cccc(F)c1F [compound 380] | 99* % | 99* % |  | 99* % |  | 99* % | 100* % |  | 96* % |  |  | 0* % | 0* % | 60* % | 0* % |  |  |  | 60

Reference: patent publication US20080194585A1, “Fungicidal Pyrazine Derivatives” (priority 2005, published 2008)
